Measurements taken from EPA's ToxRefDB 2.

What was measured:
[1] = system: rat; conditions: Prenatal developmental toxicity study; wistar; Oral; Feed; dose end: 20 GD; group: maternal; systemic / in life observation / body weight / body weight gain
[2] = system: rabbit; conditions: Prenatal developmental toxicity study, new zealand white, Dermal, Topical, dose end: 18 GD, group: maternal
[3] = system: rat; conditions: Fertility (Segment I); sprague dawley; Oral; Gavage/Intubation; dose end: 13 PND; group: offspring; systemic / in life observation / body weight / offspring (pup) weight
[4] = system: rat; conditions: Subchronic oral toxicity in rodents, fischer, Water, dose end: 13 week, group: systemic
[5] = system: mouse; conditions: Subchronic oral toxicity in rodents, b6c3f1, Gavage/Intubation, dose end: 13 week, group: systemic
[6] = system: mouse; conditions: Combined chronic toxicity/carcinogenicity, b6c3f1, Oral, Gavage/Intubation, dose end: 2 year, group: systemic
[7] = system: rat; conditions: Combined chronic toxicity/carcinogenicity; sprague dawley; Oral; Gavage/Intubation; dose end: 24 month; group: systemic; systemic / hematology / erythrocyte (rbc) count differential / erythrocyte (rbc) + systemic / hematology / hemoglobin (hgb) / hemoglobin (…
[8] = system: dog; conditions: Chronic toxicity; beagle; Oral; Gavage/Intubation; dose end: 52 week; group: systemic; systemic / clinical chemistry / cholesterol / cholesterol + systemic / clinical chemistry / triglycerides / triglycerides + systemic / in …
[9] = system: rat; conditions: Subchronic oral toxicity in rodents, sprague dawley, Feed, dose end: 90 day, group: systemic
[10] = system: rat; conditions: Combined chronic toxicity/carcinogenicity, sprague dawley, Oral, Feed, dose end: 104 week, group: systemic
[11] = system: mouse; conditions: Carcinogenicity; cd1; Oral; Feed; dose end: 18 month; group: systemic; systemic / in life observation / body weight / body weight + systemic / in life observation / body weight / body weight gain
[12] = system: rat; conditions: Combined chronic toxicity/carcinogenicity; fischer; Inhalation; Whole-Body; dose end: 105 week; group: systemic; systemic / pathology microscopic / nose / atrophy + systemic / pathology microscopic / nose / inflammation + systemic / pathology …
[13] = system: rat; conditions: Prenatal developmental toxicity study, sprague dawley, Oral, Gavage/Intubation, dose end: 15 GD
[14] = system: rat; conditions: Prenatal developmental toxicity study, sprague dawley, Oral, Gavage/Intubation, dose end: 19 GD
[15] = system: rat; conditions: Subchronic oral toxicity in rodents, fischer, Gavage/Intubation, dose end: 13 week, group: systemic
[16] = system: rat; conditions: Combined chronic toxicity/carcinogenicity; fischer; Oral; Gavage/Intubation; dose end: 2 year; group: systemic; systemic / in life observation / body weight / body weight + systemic / in life observation / clinical signs / [other] + systemic / in life …
[17] = system: rat; conditions: Prenatal developmental toxicity study, sprague dawley, Oral, Gavage/Intubation, dose end: 15 GD; remark: listed apart in the source
[18] = system: rabbit; conditions: Prenatal developmental toxicity study, new zealand white, Oral, Gavage/Intubation, dose end: 18 GD, group: maternal
[19] = systemic / in life observation / clinical signs / desquamation + systemic / in life observation / clinical signs / erythema + systemic / …
[20] = systemic / clinical chemistry / aspartate aminotransferase (ast/sgot) / aspartate aminotransferase (ast/sgot) + systemic / clinical …
[21] = systemic / hematology / reticulocyte / reticulocyte + systemic / organ weight / spleen / absolute + systemic / organ weight / spleen / …
[22] = systemic / hematology / methemoglobin / methemoglobin + systemic / hematology / reticulocyte / reticulocyte + systemic / pathology …
[23] = systemic / pathology microscopic / bone marrow / hypercellularity
[24] = systemic / organ weight / liver / absolute + systemic / organ weight / liver / relative to body weight + systemic / organ weight / heart / …
[25] = systemic / organ weight / liver / relative to body weight + systemic / clinical chemistry / cholesterol / cholesterol + systemic / organ …
[26] = systemic / organ weight / testes / relative to body weight
[27] = group: developmental, developmental / developmental malformation / brain / dilated cerebral ventricle
[28] = group: maternal, systemic / in life observation / clinical signs / altered breathing rate + systemic / in life observation / clinical signs / lethargy + …
[29] = group: developmental, systemic / in life observation / body weight / fetal weight
[30] = group: maternal, systemic / in life observation / body weight / body weight + systemic / in life observation / body weight / body weight gain + systemic / in…
[31] = systemic / organ weight / liver / relative to body weight
[32] = group: developmental, developmental / developmental malformation / bone / incomplete ossification + developmental / developmental malformation / bone / unossified
[33] = group: maternal, systemic / in life observation / clinical signs / salivation + systemic / in life observation / mortality / mortality + systemic / in life …
[34] = reproductive / reproductive performance / implantations / implantations + systemic / in life observation / body weight / body weight gain + …

Question: Which results are given for `CCCCOCCOCCO` [2-(2-Butoxyethoxy)ethanol]?
Answer: LEL [1]: 25 mg/kg/day; LOAEL [1]: > 633 mg/kg/day; NEL [1]: < 25 mg/kg/day; NOAEL [1]: ≥ 633 mg/kg/day; LEL ([2]; systemic / in life observation / clinical signs / desquamation + systemic / in life observation / clinical signs / erythema): 300 mg/kg/day; LOAEL [2, 19]: > 1000 mg/kg/day; NEL [2, 19]: 100 mg/kg/day; NOAEL [2, 19]: ≥ 1000 mg/kg/day; LEL [3]: 1000 mg/kg/day; LOAEL [3]: > 1000 mg/kg/day; NEL [3]: 500 mg/kg/day; NOAEL [3]: ≥ 1000 mg/kg/day; LOAEL [4, 20]: > 1000 mg/kg/day; NEL [4, 20]: 50 mg/kg/day; NOAEL [4, 20]: ≥ 1000 mg/kg/day; LEL ([4]; systemic / hematology / erythrocyte (rbc) count differential / erythrocyte (rbc) + systemic / hematology / hematocrit (hct) / hematocrit (…): 250 mg/kg/day

Question: Which results are given for `Nc1ccc([N+](=O)[O-])cc1` [4-Nitroaniline]?
Answer: LOAEL [5, 21]: 30 mg/kg/day; NEL [5, 21]: 3 mg/kg/day; NOAEL [5, 21]: 10 mg/kg/day; LEL ([5]; systemic / pathology microscopic / spleen / hematopoietic cell proliferation + systemic / organ weight / liver / relative to body weight + …): 10 mg/kg/day; LOAEL [6, 22]: 30 mg/kg/day; NOAEL [6, 22]: 3 mg/kg/day; LEL [6, 23]: 3 mg/kg/day; NEL [6, 23]: < 3 mg/kg/day; LEL [7]: 1.5 mg/kg/day; LOAEL [7]: > 9 mg/kg/day; NEL [7]: 0.25 mg/kg/day; NOAEL [7]: ≥ 9 mg/kg/day

Question: How did the LEL [8] turn out when `O=C(NC(=O)c1c(F)cccc1F)Nc1ccc(CON=C(c2ccc(Cl)cc2)C2CC2)cc1` [Flucycloxuron] was run?
Answer: 10 mg/kg/day

Question: And the LOAEL [8]?
Answer: 10 mg/kg/day

Question: And the NEL [8]?
Answer: < 10 mg/kg/day

Question: What about the NOAEL [8] of the same compound?
Answer: < 10 mg/kg/day

Question: What about the LEL [9, 24] of the same compound?
Answer: 200 mg/kg/day

Question: What about the NEL [9, 24] of the same compound?
Answer: < 200 mg/kg/day

Question: And the NOAEL ([9]; systemic / pathology microscopic / liver / necrosis + systemic / pathology microscopic / spleen / pigmentation + systemic / clinical …)?
Answer: 200 mg/kg/day

Question: And the LOAEL ([9]; systemic / pathology microscopic / liver / necrosis + systemic / pathology microscopic / spleen / pigmentation + systemic / organ weight / …)?
Answer: 2000 mg/kg/day

Question: What about the LOAEL [10, 25] of the same compound?
Answer: > 7000 mg/kg/day

Question: What about the NOAEL [10, 25] of the same compound?
Answer: ≥ 7000 mg/kg/day

Question: And the LEL [10, 26]?
Answer: 120 mg/kg/day

Question: And the NEL [10, 26]?
Answer: < 120 mg/kg/day

Question: What about the LEL [11] of the same compound?
Answer: 73 mg/kg/day

Question: And the LOAEL [11]?
Answer: 73 mg/kg/day

Question: What about the NEL [11] of the same compound?
Answer: 5.3 mg/kg/day

Question: And the NOAEL [11]?
Answer: 5.3 mg/kg/day

Question: How did the LEL [12] turn out when `c1ccc2ccccc2c1` [Naphthalene] was run?
Answer: 3.6 mg/kg/day

Question: And the LOAEL [12]?
Answer: 3.6 mg/kg/day

Question: What about the NEL [12] of the same compound?
Answer: < 3.6 mg/kg/day

Question: And the NOAEL [12]?
Answer: < 3.6 mg/kg/day

Question: And the LEL [13, 27]?
Answer: 450 mg/kg/day

Question: And the LOAEL [13, 27]?
Answer: > 450 mg/kg/day

Question: And the NEL [13, 27]?
Answer: 150 mg/kg/day

Question: And the NOAEL [13, 27]?
Answer: ≥ 450 mg/kg/day

Question: What about the LEL [13, 28] of the same compound?
Answer: 50 mg/kg/day

Question: And the LOAEL [13, 28]?
Answer: 50 mg/kg/day

Question: And the NEL [13, 28]?
Answer: < 50 mg/kg/day

Question: What about the NOAEL [13, 28] of the same compound?
Answer: < 50 mg/kg/day

Question: With `[N-]=[N+]=[N-].[Na+]` [Sodium azide] as the compound, how does the LEL [14, 29] read?
Answer: 17.5 mg/kg/day

Question: And the LOAEL [14, 29]?
Answer: > 17.5 mg/kg/day

Question: What about the NEL [14, 29] of the same compound?
Answer: 5 mg/kg/day

Question: What about the NOAEL [14, 29] of the same compound?
Answer: ≥ 17.5 mg/kg/day

Question: And the LEL [14, 30]?
Answer: 17.5 mg/kg/day

Question: What about the LOAEL [14, 30] of the same compound?
Answer: > 17.5 mg/kg/day

Question: And the NEL [14, 30]?
Answer: 5 mg/kg/day

Question: What about the NOAEL [14, 30] of the same compound?
Answer: ≥ 17.5 mg/kg/day

Question: And the LOAEL ([15]; systemic / in life observation / body weight / body weight gain + systemic / in life observation / clinical signs / hunched posture)?
Answer: 10 mg/kg/day

Question: And the NOAEL ([15]; systemic / in life observation / body weight / body weight gain + systemic / in life observation / clinical signs / hunched posture + …)?
Answer: 5 mg/kg/day

Question: And the LEL [15, 31]?
Answer: 1.25 mg/kg/day

Question: What about the NEL [15, 31] of the same compound?
Answer: < 1.25 mg/kg/day

Question: And the LEL [16]?
Answer: 10 mg/kg/day

Question: What about the LOAEL [16] of the same compound?
Answer: 10 mg/kg/day

Question: What about the NEL [16] of the same compound?
Answer: 5 mg/kg/day

Question: What about the NOAEL [16] of the same compound?
Answer: 5 mg/kg/day

Question: What does the source list for `CCN(CC)CC.O=C(O)COc1nc(Cl)c(Cl)cc1Cl` [Triclopyr triethylamine salt]?
Answer: LEL [17, 32]: 300 mg/kg/day; LOAEL [17, 32]: 300 mg/kg/day; NEL [17, 32]: 100 mg/kg/day; NOAEL [17, 32]: 100 mg/kg/day; LOAEL ([17]; group: maternal, systemic / in life observation / clinical signs / salivation + systemic / in life observation / mortality / mortality): 300 mg/kg/day; NEL [17, 33]: 30 mg/kg/day; NOAEL [17, 33]: 100 mg/kg/day; LEL ([17]; group: maternal, systemic / in life observation / water consumption / water consumption): 100 mg/kg/day; LOAEL [18, 34]: 100 mg/kg/day; NEL [18, 34]: 10 mg/kg/day; NOAEL [18, 34]: 30 mg/kg/day; LEL ([18]; reproductive / reproductive performance / preimplantation loss / preimplantation loss): 30 mg/kg/day
